According to patent US20030130280A1, “Treatment of acute myeloid leukemia with indolinone compounds” (SUGEN, Inc., priority 2001, published 2003):

What was measured:
[1] = biological target: T1, Wild-type FLT-3 (Homo sapiens, UniProt P36888); assay: FLT-3 phosphorylation by immunoprecipitation/Western in RS411 cells; assay type: cell-based; settings: for Wild-type FLT-3 (inhibition of phosphorylation): RS411 cells, IP/Western; on Wild-type FLT-3 (inhibition of phosphorylation): key: +++: very strong inhibition; ++: inhibition; +/−: weak inhibition; −: no inhibition
T1 construct: host or cells: RS411 (RS4;11)
T1 sequence (P36888 27-993): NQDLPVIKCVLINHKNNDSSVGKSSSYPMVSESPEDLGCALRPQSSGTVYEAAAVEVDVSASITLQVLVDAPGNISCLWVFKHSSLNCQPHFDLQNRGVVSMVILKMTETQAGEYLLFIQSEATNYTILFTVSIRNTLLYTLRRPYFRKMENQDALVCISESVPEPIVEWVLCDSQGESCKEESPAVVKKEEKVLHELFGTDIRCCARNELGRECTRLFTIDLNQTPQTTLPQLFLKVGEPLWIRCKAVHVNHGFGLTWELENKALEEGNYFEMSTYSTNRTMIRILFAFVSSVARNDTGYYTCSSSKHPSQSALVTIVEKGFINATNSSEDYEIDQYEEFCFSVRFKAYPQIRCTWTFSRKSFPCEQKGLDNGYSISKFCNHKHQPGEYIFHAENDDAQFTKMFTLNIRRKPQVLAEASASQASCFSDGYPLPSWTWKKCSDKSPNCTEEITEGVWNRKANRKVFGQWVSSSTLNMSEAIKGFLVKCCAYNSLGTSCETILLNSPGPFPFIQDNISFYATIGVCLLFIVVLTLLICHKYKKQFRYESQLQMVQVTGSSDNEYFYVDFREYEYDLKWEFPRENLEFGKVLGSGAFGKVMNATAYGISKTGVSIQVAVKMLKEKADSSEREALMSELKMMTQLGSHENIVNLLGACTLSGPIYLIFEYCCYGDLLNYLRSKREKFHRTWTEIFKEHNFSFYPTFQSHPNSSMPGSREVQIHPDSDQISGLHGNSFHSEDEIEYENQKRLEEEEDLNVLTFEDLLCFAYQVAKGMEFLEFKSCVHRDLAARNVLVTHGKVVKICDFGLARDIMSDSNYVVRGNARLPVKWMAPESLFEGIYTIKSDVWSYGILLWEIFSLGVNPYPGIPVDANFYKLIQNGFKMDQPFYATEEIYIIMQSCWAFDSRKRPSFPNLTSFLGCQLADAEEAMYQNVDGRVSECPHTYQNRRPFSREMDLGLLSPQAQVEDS
Protocol: FLT-3 was immunoprecipitated from lysates with a commercially available antibody. Proteins were separated by SDS-polyacrylamide gel electrophoresis, transferred to membranes analyzed by Western blotting for phosphotyrosine and subsequently for total FLT-3 protein as control. […]
(§1) Immunoprecipitation and Western Blot (IP/W) analysis: Cells were lysed in lysis buffer (20 mM Tris, pH 7.5; 137 mM NaCl; 10% glycerol; 1% NP-40; 0.1% SDS; 2 mM EDTA) containing protease and phosphatase inhibitors (50 mM sodium fluoride, 1 mM sodium orthovanadate, 2 mM Pefabloc, […], […], […], 4 mM leupeptin, and 4 mM pepstatin A). Equivalent amounts of protein were separated by SDS-PAGE, then transferred to nitrocellulose membranes. For analysis of FLT3 phosphorylation, equivalent amounts of protein from each sample were immunoprecipitated overnight at 4*C. with an agarose-conjugated anti-FLT3 antibody (Santa Cruz Biotechnology, Santa Cruz, Calif.). Immune complexes were washed (150 mM NaCl, 1.5 mM MgCl2, 50 mM HEPES, pH 7.5, 10% glycerol, 0.1% Triton X-100, and 1 mM EGTA) and following SDS-PAGE, proteins were transferred to nitrocellulose membranes. Membranes were probed with an anti-phosphotyrosine antibody (Upstate, Lake Placid, N.Y. or Transduction Laboratories, Lexington, Ky.) and then stripped with Restore Western Blot Stripping Buffer (Pierce, Rockford, Ill.). Membranes were reprobed with an anti-FLT3 antibody (Santa Cruz Biotechnology). Stat5 antibodies for immunprecipitation and Western blot analysis were from Upstate Biotechnology and Transduction labs respectively.

[2] = biological target: T2, Mutant FLT-3 (ITD) (Homo sapiens, UniProt P36888, INS600HVDFREYEYD); assay: FLT-3 phosphorylation by immunoprecipitation/Western in MV411 cells; assay type: cell-based; settings: for Mutant FLT-3 (inhibition of phosphorylation): MV411 cells, IP/Western; on Mutant FLT-3 (inhibition of phosphorylation): key: +++: very strong inhibition; ++: inhibition; +/−: weak inhibition; −: no inhibition
T2 sequence (P36888 27-993 INS600HVDFREYEYD): T1 sequence (P36888 27-993)
Protocol: FLT-3 was immunoprecipitated from lysates with a commercially available antibody. Proteins were separated by SDS-polyacrylamide gel electrophoresis, transferred to membranes analyzed by Western blotting for phosphotyrosine and subsequently for total FLT-3 protein as control.
The comparative example is a known protein kinase inhibitor having the following formula: [drawing 18]
as §1

| inhibition of wild-type FLT-3 phosphorylation ([1]; in words) | Mutant FLT-3 (inhibition of phosphorylation) [2] | inhibition of mutant FLT-3 phosphorylation ([2]; in words) | SMILES | Wild-type FLT-3 (inhibition of phosphorylation) [1] |
| --- | --- | --- | --- | --- |
| no inhibition | − | no inhibition | Cc1[nH]c(/C=C2\C(=O)Nc3ccccc32)c(C)c1CCC(=O)O [Comparative, reference compound] | − |
|  |  |  | Cc1[nH]c(C=C2C(=O)Nc3ccc(F)cc32)c(C)c1C(=O)NCCN1CCOCC1 [Compound 3, 5-(5-Fluoro-2-oxo-1,2-dihydro-indol-3-ylidenemethyl)-2,4-dimethyl-1H-pyrrole-3-carboxylic acid(2-morpholin-4-yl-ethyl)-amide] | +/− |
|  |  |  | Cc1[nH]c(C=C2C(=O)Nc3ccc(Cl)cc32)c(C)c1C(=O)NCC(O)CN1CCOCC1 (stereo not drawn) [Compound 7, 5-(5-Chloro-2-oxo-1,2-dihydro-indol-3-ylidenemethyl)-2,4-dimethyl-1H-pyrrole-3-carboxylic acid(2-hydroxy-3-morpholin-4-yl-propyl)-amide] | ++ |
|  |  |  | CCNCCNC(=O)c1c(C)[nH]c(C=C2C(=O)Nc3ccc(F)cc32)c1C [Compound 8, 5-(5-Fluoro-2-oxo-1,2-dihydro-indol-3-ylidenemethyl)-2,4-dimethyl-1H-pyrrole-3-carboxylic acid(2-ethylamino-ethyl)-amide] | ++ |
|  |  |  | Cc1[nH]c(/C=C2\C(=O)Nc3ccc(F)cc32)c(C)c1C(=O)N1CCC(N2CCOCC2)CC1 [Compound 9, 3-[3,5-dimethyl-4-(4-morpholin-4-yl-piperidine-1-carbonyl)-1H-pyrrol-2-methylene]-5-fluoro-1,3-dihydro-indol-2-one] | ++ |
|  | − |  | Cc1cc(CCC(=O)O)c(C=C2C(=O)Nc3ccccc32)[nH]1 [Compound 10, 3-[5-methyl-2-(2-oxo-1,2-dihydro-indol-3-ylidenemethyl)-1H-pyrrol-3-yl]-propionic acid] | +/− |

| SMILES | inhibition of wild-type FLT-3 phosphorylation ([1]; in words) | Mutant FLT-3 (inhibition of phosphorylation) [2] | inhibition of mutant FLT-3 phosphorylation ([2]; in words) | Wild-type FLT-3 (inhibition of phosphorylation) [1] |
| --- | --- | --- | --- | --- |
| Cc1[nH]c(C=C2C(=O)Nc3ccc(F)cc32)c(C)c1C(=O)NCCN1CCCC1 [Compound 2, 5-(5-Fluoro-2-oxo-1,2-dihydro-indol-3-ylidenemethyl)-2,4-dimethyl-1H-pyrrole-3-carboxylic acid(2-pyrrolidin-1-yl-ethyl)-amide] |  | ++ |  | ++ |
